# Test results taken from US20240217977A1, “DIAZEPANONE-FUSED PYRIMIDINE COMPOUNDS, COMPOSITIONS AND MEDICINAL APPLICATIONS THEREOF” (Blueprint Medicines Corporation, priority 2021, published 2024).
# Key:
# Type in all cases: cell-based
# [1] = biological target: EGFR(D770_N771insSVD) expressing Ba/F3 stable cell line (Homo sapiens, UniProt P00533, DUP768-770, cells depend on it); assay: Cellular proliferation (Alamar Blue) assay, EGFR(D770_N771insSVD) Ba/F3; details: 72 hr incubation, read-out: D770 IC50
# Procedure: (§1) Example 2: Cellular Proliferation (Alamar Blue) Assays
# (§2) • 1. EGFR(D770_N771insSVD) expressing Ba/F3 stable cell line • 2. EGFR (A767_dupASV) expressing Ba/F3 stable cell line • 3. A431 cells • 4. EGFR (H773insNPH) expressing Ba/F3 stable cell line • 5. HER2 (A775_G775insYVMA) expressing Ba/F3 stable cell line
# (§3) • 1. Seed cells at 5000 for A431 and 15,000 cells for Ba/F3 in 100 μL/well in complete media (for A431: DMEM with 10% FBS and for Ba/F3 cells: RPMI with 10% FBS) in • 96-well tissue culture plate. Leave outer wells without cells for background measurements. Incubate at 37 degree Celsius in 5% C02 humidified incubator for 16-18 hours. • 2. Add 0.025 ml of 5× concentration compound dilution or DMSO control. Final compound concentration range is 10-0.0005 μM prepared in 3-fold serial dilutions. Incubate for 72 hr at 37 degree Celsius in 5% CO2 humidified incubator. • 3. Add 0.0125 ml Alamar Blue™ reagent to each well with multi-channel pipette and tap gently on each side of the plate to mix. Incubate for 3 hours at 37 degree Celsius in 5% CO2 humidified incubator. • 4. Read plates on fluorescence reader (Tecan Spark Control, Device: Spark, Serial #: 1801006040) at 540 nm excitation, 590 nm emission wavelength. • 5. Data analysis was performed using XLfit 5.5.0.5.
# [2] = biological target: EGFR (H773insNPH) expressing Ba/F3 stable cell line (Homo sapiens, UniProt P00533, DUP771-773, cells depend on it); assay: Cellular proliferation (Alamar Blue) assay, EGFR (H773insNPH) Ba/F3; details: 72 hr incubation, read-out: NPH IC50
# Procedure: as §1, §2, §3
# A431 cells = assay: Cellular proliferation (Alamar Blue) assay, A431 cells; details: Homo sapiens, A-431, 72 hr incubation
# Procedure: as §1, §2, §3
# [3] = biological target: HER2 (A775_G775insYVMA) expressing Ba/F3 stable cell line (Homo sapiens, UniProt P04626, DUP772-775, cells depend on it); assay: Cellular proliferation (Alamar Blue) assay, HER2 (A775_G775insYVMA) Ba/F3; details: 72 hr incubation, read-out: YVMA IC50
# Procedure: as §1, §2, §3
# [4] = biological target: EGFR (A767_dupASV) expressing Ba/F3 stable cell line (Homo sapiens, UniProt P00533, DUP767-769, cells depend on it); assay: Cellular proliferation (Alamar Blue) assay, EGFR (A767_dupASV) Ba/F3; details: 72 hr incubation, read-out: A767 IC50
# Procedure: as §1, §2, §3
# Chain of EGFR (A767_dupASV) expressing Ba/F3 stable cell line (P00533 with tags, fused parts or gaps DUP767-769): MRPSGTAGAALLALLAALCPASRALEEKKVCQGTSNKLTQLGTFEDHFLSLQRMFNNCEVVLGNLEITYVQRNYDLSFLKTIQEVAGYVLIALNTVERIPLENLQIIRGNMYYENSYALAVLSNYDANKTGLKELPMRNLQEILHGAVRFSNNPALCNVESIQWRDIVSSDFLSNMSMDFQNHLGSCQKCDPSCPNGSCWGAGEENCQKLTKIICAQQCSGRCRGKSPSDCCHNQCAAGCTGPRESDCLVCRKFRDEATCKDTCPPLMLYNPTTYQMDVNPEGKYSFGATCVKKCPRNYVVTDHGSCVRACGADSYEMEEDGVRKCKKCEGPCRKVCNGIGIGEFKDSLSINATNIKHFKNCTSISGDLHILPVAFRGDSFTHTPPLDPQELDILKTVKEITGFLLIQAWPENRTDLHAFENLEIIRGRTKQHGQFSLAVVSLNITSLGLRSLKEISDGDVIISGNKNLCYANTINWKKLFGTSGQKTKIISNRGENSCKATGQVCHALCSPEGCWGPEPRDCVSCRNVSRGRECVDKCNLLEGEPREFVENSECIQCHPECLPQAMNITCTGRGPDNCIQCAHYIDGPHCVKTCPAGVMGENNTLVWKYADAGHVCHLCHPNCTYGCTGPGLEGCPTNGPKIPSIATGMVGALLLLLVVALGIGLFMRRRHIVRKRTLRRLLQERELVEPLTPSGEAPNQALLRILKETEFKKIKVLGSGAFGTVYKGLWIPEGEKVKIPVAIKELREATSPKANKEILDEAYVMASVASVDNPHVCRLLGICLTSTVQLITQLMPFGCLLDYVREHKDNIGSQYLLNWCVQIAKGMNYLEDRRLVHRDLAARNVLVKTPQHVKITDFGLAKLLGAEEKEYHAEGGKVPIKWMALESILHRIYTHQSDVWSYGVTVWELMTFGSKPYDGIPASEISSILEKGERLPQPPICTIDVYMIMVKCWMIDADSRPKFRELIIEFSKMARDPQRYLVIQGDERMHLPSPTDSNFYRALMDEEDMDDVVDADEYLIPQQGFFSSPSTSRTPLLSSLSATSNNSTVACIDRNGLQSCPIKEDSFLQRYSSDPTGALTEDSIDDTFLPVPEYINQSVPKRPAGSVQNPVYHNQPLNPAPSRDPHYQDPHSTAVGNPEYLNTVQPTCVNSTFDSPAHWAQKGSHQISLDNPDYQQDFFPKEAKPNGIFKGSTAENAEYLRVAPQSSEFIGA
# Chain of EGFR (H773insNPH) expressing Ba/F3 stable cell line (P00533 with tags, fused parts or gaps DUP771-773): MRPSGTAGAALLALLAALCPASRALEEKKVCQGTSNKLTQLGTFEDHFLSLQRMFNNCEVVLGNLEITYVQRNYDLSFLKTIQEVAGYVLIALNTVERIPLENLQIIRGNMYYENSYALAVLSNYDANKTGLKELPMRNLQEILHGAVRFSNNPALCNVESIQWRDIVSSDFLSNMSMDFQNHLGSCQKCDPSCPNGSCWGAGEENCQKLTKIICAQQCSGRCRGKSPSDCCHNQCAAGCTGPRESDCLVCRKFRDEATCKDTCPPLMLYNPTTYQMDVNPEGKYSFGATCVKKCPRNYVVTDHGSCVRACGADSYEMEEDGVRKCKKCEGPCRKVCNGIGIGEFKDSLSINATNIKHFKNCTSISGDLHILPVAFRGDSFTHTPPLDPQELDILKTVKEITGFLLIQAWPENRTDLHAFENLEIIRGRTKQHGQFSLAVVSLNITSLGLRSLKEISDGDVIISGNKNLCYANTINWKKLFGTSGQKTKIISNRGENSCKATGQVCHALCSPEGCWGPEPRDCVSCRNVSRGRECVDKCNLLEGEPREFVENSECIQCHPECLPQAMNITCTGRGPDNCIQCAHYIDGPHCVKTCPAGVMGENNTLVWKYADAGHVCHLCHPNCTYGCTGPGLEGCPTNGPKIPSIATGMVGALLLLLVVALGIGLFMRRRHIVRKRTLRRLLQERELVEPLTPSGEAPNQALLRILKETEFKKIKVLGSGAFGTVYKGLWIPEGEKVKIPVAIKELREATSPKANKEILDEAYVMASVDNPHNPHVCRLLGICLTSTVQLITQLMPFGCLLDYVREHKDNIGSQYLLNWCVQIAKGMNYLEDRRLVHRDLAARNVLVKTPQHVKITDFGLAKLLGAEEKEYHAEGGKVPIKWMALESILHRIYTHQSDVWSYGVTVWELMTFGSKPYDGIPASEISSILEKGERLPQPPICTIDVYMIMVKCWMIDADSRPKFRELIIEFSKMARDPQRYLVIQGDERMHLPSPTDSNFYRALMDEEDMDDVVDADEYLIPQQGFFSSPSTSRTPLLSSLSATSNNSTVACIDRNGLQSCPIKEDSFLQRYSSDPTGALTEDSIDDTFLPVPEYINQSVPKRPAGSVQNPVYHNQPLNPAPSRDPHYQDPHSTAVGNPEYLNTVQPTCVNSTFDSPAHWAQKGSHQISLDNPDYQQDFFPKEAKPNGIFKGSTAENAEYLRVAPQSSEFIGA
# Chain of HER2 (A775_G775insYVMA) expressing Ba/F3 stable cell line (P04626 with tags, fused parts or gaps DUP772-775): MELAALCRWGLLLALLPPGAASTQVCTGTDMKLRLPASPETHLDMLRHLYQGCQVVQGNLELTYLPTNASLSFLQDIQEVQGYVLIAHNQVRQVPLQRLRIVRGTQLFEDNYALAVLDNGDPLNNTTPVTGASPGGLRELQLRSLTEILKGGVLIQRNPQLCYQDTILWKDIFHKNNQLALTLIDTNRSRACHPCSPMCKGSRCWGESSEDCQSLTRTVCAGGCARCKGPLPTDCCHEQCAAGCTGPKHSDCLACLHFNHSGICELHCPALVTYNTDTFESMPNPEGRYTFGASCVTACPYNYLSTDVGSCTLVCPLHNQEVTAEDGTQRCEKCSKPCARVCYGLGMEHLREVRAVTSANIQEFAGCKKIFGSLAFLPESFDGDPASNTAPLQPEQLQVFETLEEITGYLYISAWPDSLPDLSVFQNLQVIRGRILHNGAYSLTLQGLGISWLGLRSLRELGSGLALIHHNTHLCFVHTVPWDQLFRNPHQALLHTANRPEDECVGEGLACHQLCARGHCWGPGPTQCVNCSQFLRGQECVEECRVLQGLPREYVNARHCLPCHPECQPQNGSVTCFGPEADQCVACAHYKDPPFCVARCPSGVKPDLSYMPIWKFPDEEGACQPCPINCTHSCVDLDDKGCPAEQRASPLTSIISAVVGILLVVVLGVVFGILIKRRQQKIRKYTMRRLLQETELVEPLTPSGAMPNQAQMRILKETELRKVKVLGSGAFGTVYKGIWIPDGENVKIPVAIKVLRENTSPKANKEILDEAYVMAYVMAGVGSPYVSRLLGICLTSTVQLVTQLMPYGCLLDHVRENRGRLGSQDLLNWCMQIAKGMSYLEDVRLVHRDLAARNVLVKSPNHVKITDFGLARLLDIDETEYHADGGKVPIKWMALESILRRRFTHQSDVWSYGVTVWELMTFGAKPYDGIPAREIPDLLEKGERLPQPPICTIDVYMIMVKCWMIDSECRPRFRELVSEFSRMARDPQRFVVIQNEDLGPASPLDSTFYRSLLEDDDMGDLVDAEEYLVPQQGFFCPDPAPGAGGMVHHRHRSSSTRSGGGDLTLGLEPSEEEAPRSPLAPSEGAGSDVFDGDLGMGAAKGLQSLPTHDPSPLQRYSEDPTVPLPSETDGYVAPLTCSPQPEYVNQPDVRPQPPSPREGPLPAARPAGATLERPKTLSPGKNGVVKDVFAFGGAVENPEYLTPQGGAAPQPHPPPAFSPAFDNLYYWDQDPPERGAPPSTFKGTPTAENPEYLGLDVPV
# Chain of EGFR(D770_N771insSVD) expressing Ba/F3 stable cell line (P00533 with tags, fused parts or gaps DUP768-770): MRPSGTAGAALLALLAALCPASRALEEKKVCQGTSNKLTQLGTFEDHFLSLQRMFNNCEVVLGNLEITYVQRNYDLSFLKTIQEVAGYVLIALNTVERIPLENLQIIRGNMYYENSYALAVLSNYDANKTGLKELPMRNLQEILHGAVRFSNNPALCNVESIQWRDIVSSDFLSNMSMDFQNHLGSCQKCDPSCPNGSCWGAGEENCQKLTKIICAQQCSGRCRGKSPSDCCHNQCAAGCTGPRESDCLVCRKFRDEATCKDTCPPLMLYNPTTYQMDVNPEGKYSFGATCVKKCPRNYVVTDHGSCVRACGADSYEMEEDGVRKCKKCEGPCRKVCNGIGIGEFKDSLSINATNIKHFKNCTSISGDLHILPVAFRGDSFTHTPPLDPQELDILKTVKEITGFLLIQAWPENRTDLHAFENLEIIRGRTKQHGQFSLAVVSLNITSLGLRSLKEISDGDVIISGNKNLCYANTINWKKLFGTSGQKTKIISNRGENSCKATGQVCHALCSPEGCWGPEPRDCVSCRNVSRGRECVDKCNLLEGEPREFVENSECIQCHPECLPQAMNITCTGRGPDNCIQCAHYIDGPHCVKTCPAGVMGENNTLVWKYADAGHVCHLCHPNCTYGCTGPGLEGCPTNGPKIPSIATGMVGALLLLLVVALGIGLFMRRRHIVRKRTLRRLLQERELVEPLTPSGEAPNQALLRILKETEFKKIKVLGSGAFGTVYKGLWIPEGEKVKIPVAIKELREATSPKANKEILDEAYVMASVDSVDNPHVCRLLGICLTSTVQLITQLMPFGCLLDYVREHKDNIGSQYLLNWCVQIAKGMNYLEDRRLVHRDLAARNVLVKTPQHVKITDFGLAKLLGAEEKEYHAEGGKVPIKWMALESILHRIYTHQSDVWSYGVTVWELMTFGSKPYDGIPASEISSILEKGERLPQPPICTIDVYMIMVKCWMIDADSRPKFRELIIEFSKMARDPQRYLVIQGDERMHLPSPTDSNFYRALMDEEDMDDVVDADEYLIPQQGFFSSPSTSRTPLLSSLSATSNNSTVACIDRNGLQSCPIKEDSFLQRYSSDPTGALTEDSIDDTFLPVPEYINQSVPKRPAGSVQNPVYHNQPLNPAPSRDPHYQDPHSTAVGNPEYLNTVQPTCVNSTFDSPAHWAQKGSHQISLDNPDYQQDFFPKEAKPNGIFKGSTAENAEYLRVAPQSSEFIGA
GI50 [1] [nM],GI50 [2] [nM],IC50 (A431 cells) [nM],GI50 [3] [nM],GI50 [4] [nM],SMILES
12,32,8,10,9,"Cn1cc(Nc2ncc3c(n2)N(c2cccc(NC(=O)/C=C/CF)c2)C(=O)N(Cc2ccccc2)CC3)c(Cl)n1 [Compound 6, (E)-N-(3-(7-benzyl-2-((3-chloro-1-methyl-1H-pyrazol-4-yl)amino)-8-oxo-5,6,7,8-tetrahydro-9H-pyrimido[4,5-d][1,3]diazepin-9-yl)phenyl)-4-fluorobut-2-enamide]"
47,94,8,20,43,"Cn1cc(Nc2ncc3c(n2)N(c2cccc(NC(=O)/C=C/CN4CCOCC4)c2)C(=O)N(Cc2ccccc2)CC3)c(Cl)n1 [Compound 10, (E)-N-(3-(7-benzyl-2-((3-chloro-1-methyl-1H-pyrazol-4-yl)amino)-8-oxo-5,6,7,8-tetrahydro-9H-pyrimido[4,5-d][1,3]diazepin-9-yl)phenyl)-4-morpholinobut-2-enamide]"
10,7,2,12,12,"C=CC(=O)Nc1cccc(N2C(=O)N(Cc3ccccc3)CCc3cnc(Nc4cn(C)nc4Cl)nc32)c1 [Compound 5, N-(3-(7-benzyl-2-((3-chloro-1-methyl-1H-pyrazol-4-yl)amino)-8-oxo-5,6,7,8-tetrahydro-9H-pyrimido[4,5-d][1,3]diazepin-9-yl)phenyl)acrylamide]"
31,41,25,9,33,"C=CC(=O)Nc1cccc(N2C(=O)N(Cc3ccccc3)CCc3cnc(Nc4ccc(N5CCN(C)CC5)c(C)c4)nc32)c1 [Compound 22, N-(3-(7-benzyl-2-((3-methyl-4-(4-methylpiperazin-1-yl)phenyl)amino)-8-oxo-5,6,7,8-tetrahydro-9H-pyrimido[4,5-d][1,3]diazepin-9-yl)phenyl)acrylamide]"
239,193,> 10000,1360,146,"C=CC(=O)Nc1cccc(N2C(=O)N(c3ccccc3)CCc3cnc(Nc4cccnc4F)nc32)c1 [Compound 43, N-(3-{12-[(2-fluoropyridin-3-yl)amino]-8-oxo-7-phenyl-5H,6H,7H,8H,9H-pyrimido[4,5-d][1,3]diazepin-9-yl}phenyl)prop-2-enamide]"
110,3,23,91,75,"C=CC(=O)Nc1cccc(N2C(=O)N(c3ccc(F)cc3)CCc3cnc(Nc4cn(C)nc4Cl)nc32)c1 [Compound 42, N-(3-(2-((3-chloro-1-methyl-1H-pyrazol-4-yl)amino)-7-(4-fluorophenyl)-8-oxo-5,6,7,8-tetrahydro-9H-pyrimido[4,5-d][1,3]diazepin-9-yl)phenyl)acrylamide]"
45,95,35,28,46,"C=CC(=O)Nc1cccc(N2C(=O)N(Cc3ccccc3)CCc3cnc(Nc4ccc(F)c(C)c4)nc32)c1 [Compound 9, N-(3-(7-benzyl-2-((4-fluoro-3-methylphenyl)amino)-8-oxo-5,6,7,8-tetrahydro-9H-pyrimido[4,5-d][1,3]diazepin-9-yl)phenyl)acrylamide]"
98,103,> 10000,125,104,"COC/C=C/C(=O)Nc1cccc(N2C(=O)N(Cc3ccccc3)CCc3cnc(Nc4cn(C)nc4Cl)nc32)c1 [Compound 4, (E)-N-(3-(7-benzyl-2-((3-chloro-1-methyl-1H-pyrazol-4-yl)amino)-8-oxo-5,6,7,8-tetrahydro-9H-pyrimido[4,5-d][1,3]diazepin-9-yl)phenyl)-4-methoxybut-2-enamide]"
12,32,9,8,13,"C=CC(=O)Nc1cccc(N2C(=O)N(Cc3ccccc3)CCc3cnc(Nc4cn(C5COC5)nc4Cl)nc32)c1 [Compound 28, N-(3-(7-benzyl-2-((3-chloro-1-(oxetan-3-yl)-1H-pyrazol-4-yl)amino)-8-oxo-5,6,7,8-tetrahydro-9H-pyrimido[4,5-d][1,3]diazepin-9-yl)phenyl)acrylamide]"
41,27,102,29,32,"C=CC(=O)Nc1cccc(N2C(=O)N(c3ccccc3)CCc3cnc(Nc4ccc(N5CCN(C)CC5)c(C)c4)nc32)c1 [Compound 41, N-(3-(2-((3-methyl-4-(4-methylpiperazin-1-yl)phenyl)amino)-8-oxo-7-phenyl-5,6,7,8-tetrahydro-9H-pyrimido[4,5-d][1,3]diazepin-9-yl)phenyl)acrylamide]"
10,31,5,7,11,"C=CC(=O)Nc1cccc(N2C(=O)N(Cc3ccccc3)CCc3cnc(Nc4cn(C)nc4F)nc32)c1 [Compound 11, N-(3-(7-benzyl-2-((3-fluoro-1-methyl-1H-pyrazol-4-yl)amino)-8-oxo-5,6,7,8-tetrahydro-9H-pyrimido[4,5-d][1,3]diazepin-9-yl)phenyl)acrylamide]"
14,25,> 10000,24,10,"C=CC(=O)Nc1cccc(N2C(=O)N(Cc3ccccc3)CCc3cnc(Nc4ccc(N5CCOCC5)nc4)nc32)c1 [Compound 19, N-(3-(7-benzyl-2-((6-morpholinopyridin-3-yl)amino)-8-oxo-5,6,7,8-tetrahydro-9H-pyrimido[4,5-d][1,3]diazepin-9-yl)phenyl)acrylamide]"
39,32,9,25,25,"C=CC(=O)Nc1cccc(N2C(=O)N(Cc3ccccc3)CCc3cnc(Nc4ccc(N5CCN(C)CC5)nc4)nc32)c1 [Compound 16, N-(3-(7-benzyl-2-((6-(4-methylpiperazin-1-yl)pyridin-3-yl)amino)-8-oxo-5,6,7,8-tetrahydro-9H-pyrimido[4,5-d][1,3]diazepin-9-yl)phenyl)acrylamide]"
35,90,134,33,67,"C=CC(=O)Nc1cccc(N2C(=O)N(Cc3ccccc3)CCc3cnc(Nc4ccc(F)nc4)nc32)c1 [Compound 26, N-(3-(7-benzyl-2-((6-fluoropyridin-3-yl)amino)-8-oxo-5,6,7,8-tetrahydro-9H-pyrimido[4,5-d][1,3]diazepin-9-yl)phenyl)acrylamide]"
105,86,132,31,54,"CN(C)C/C=C/C(=O)Nc1cccc(N2C(=O)N(Cc3ccccc3)CCc3cnc(Nc4cn(C)nc4Cl)nc32)c1 [Compound 1, (E)-N-(3-(7-benzyl-2-((3-chloro-1-methyl-1H-pyrazol-4-yl)amino)-8-oxo-5,6,7,8-tetrahydro-9H-pyrimido[4,5-d][1,3]diazepin-9-yl)phenyl)-4-(dimethylamino)but-2-enamide]"
89,100,7,138,38,"C=CC(=O)Nc1cccc(N2C(=O)N(c3ccccc3)CCc3cnc(Nc4ccc(N5CCN(C)CC5)cc4)nc32)c1 [Compound 37, N-(3-(2-((4-(4-methylpiperazin-1-yl)phenyl)amino)-8-oxo-7-phenyl-5,6,7,8-tetrahydro-9H-pyrimido[4,5-d][1,3]diazepin-9-yl)phenyl)acrylamide]"
38,32,34,15,33,"C=CC(=O)Nc1cccc(N2C(=O)N(Cc3ccccc3)CCc3cnc(Nc4ccc(N5CCN(C)CC5)cc4OC)nc32)c1 [Compound 14, N-(3-(7-benzyl-2-((2-methoxy-4-(4-methylpiperazin-1-yl)phenyl)amino)-8-oxo-5,6,7,8-tetrahydro-9H-pyrimido[4,5-d][1,3]diazepin-9-yl)phenyl)acrylamide]"
36,41,2,24,27,"C=CC(=O)Nc1cccc(N2C(=O)N(Cc3ccccc3)CCc3cnc(Nc4cn(C5CCN(C)CC5)nc4Cl)nc32)c1 [Compound 7, N-(3-(7-benzyl-2-((3-chloro-1-(1-methylpiperidin-4-yl)-1H-pyrazol-4-yl)amino)-8-oxo-5,6,7,8-tetrahydro-9H-pyrimido[4,5-d][1,3]diazepin-9-yl)phenyl)acrylamide]"
